Data on two substances can be found in patent EP4483904A1, “POLYOXOMETALATES AS MEMBRANE CARRIERS” (Universität Wien, priority 2023, dated 2025).

Assay [1] in a line: Transport experiments in CF-loaded anionic vesicles. The assay is classed as biochemical. The conditions noted are these: DMPE/DPPG/CHOL (anionic), 13 µM phospholipids, 10 µM heptaArg. On the procedure:
Anionic vesicles in neutral media: Anionic vesicles were prepared analogously except for the lipid composition, DMPE/DPPG/CHOL (4.4/10.4/2.6 mg, 1/2/1 molar ratio) in a 1:1 mixture of CHCl3 and MeOH (1mL), the hydration (60 mins) and extrusion were performed at 55 °C, and the employed buffers were 100 mM CF, 10 mM Tris, pH 7.4 and 10 mM Tris, 140 mM NaCl, pH 7.4 for rehydration and elution, respectively.
(§1) Vesicles stock solutions (5-10 µL) were diluted with the corresponding buffer in a disposable plastic cuvette and gently stirred (total volume 2000 µL, final lipid concentration 13 µM). […] Fluorescence intensities were normalized to fractional emission as: I(t) = (It −I0)/(I∞ −I0) [formula]
(§2) Where I0 = It before POM addition and […] = I∞ after lysis. For Hill analysis, It before lysis was defined as transport activity, Y, and plotted against POM concentration, c, and fitted to the Hill equation (2), to afford the activity in absence of POM, Y0, the maximal activity, Ymax, the concentration needed to achieve 50 % of maximal activity, EC50, and the Hill coefficient, n. Y = Y0 + (Ymax −Y0)/(1 + (((EC50)/(c)))^n) [formula]
(§3) In the transport measurements, where different carriers (POMs) are tested with the same cargo, the activator efficiency (E) is determined by their capacity to transport the impermeable cargo to the intravesicular region and is characterized by Ymax, its maximal activity, and EC50, the effective activator concentration. An ideal carrier reaches high Ymax at low EC50. To count both factors, the activator efficiency is defined as: E = Ymax (pEC50)/(f) [formula] were pEC50 is the negative logarithm of the EC50, and fa scaling factor, which was set to 20.6 to calibrate the highest (previously known) activation efficiency, E, as 10.

For assay [2], the system named is heptaArg. Nature of the assay: Isothermal titration calorimetry, POM into heptaArg. The assay is classed as binding. The following applies: 10 mM Mes, pH 5.5, 298.15 K. The procedure:
(§4) All experiments were performed with a VP-ITC MicroCalorimeter from MicroCal, Int,. at atmospheric pressure and 298.15 K. Solutions were degassed and thermostatic prior the titration experiments in a ThermoVac accessory. A constant volume of POM ([PVW11]^4- or [SiMoW11]^4-) (10 µL per injection) was injected into the oligopeptide solution (heptaArg, protamine, polyArg or heptaLys) in 10 mM Mes, pH 5.5 to determine the apparent binding affinity of [PVW11]^4- and [SiMoW11]^4- with the oligopeptides. Dilution heats were determined by titration of the POM into buffer and subtracted from the reaction heat. The neat reaction heat was fitted with Origin 7.0 software by using the "one-set-of-sites" model to obtain the complex stability constant (Ka) and molar reaction enthalpy (ΔH°). The free energy (ΔG°) and entropy changes (ΔS°) were obtained according to the relation: ΔG° = - R TInKa = ΔH°-TΔS°.
For orientation: In ITC the heat of successive injections is recorded.

For assay [3], the system named is protamine. Nature of the assay: Isothermal titration calorimetry, POM into protamine. The following applies: 10 mM Mes, pH 5.5, 298.15 K. The assay is classed as binding. On the procedure: as §4
The nature of assay [4]: Transport experiments in CF-loaded zwitterionic EYPC vesicles (CF fluorescence, Hill analysis). Type of assay: biochemical. The conditions noted are these: for cargo transport in CF-loaded vesicles (qualitative): LUVs loaded with CF, added cargo; for onset for transport activity (carrier concentration): vesicles, Fig. 4. The procedure:
The dry film was rehydrated with 1 mL buffer (50 mM CF, 10 mM Hepes, pH 7.4 or 50 mM CF, 10 mM Tris, pH 7.4) for 30 min at room temperature, subjected to freeze-thaw cycles (7 times) and extrusions (15 times) through a polycarbonate membrane (pore size 100 nm). Extravesicular components were removed by size exclusion chromatography (NAP-25 column Sephadex G-25 DNA grade) with 10 mM Hepes, 107 mM NaCl, pH 7.4 or 10 mM Hepes, 107 mM NaCl, pH 7.4. Phospholipid concentration was calculated by the Stewart assay. […]
as §1, §2, §3
The capability of POMs to act as membrane carriers was explored first in large unilamellar vesicles (LUVs), loaded with carboxyfluorescein (CF). We selected […] representative cationic peptides, heptaarginine (heptaArg), heptalysine (heptaLys), protamine, and polyarginine (polyArg), as test cargos. Inside the LUVs, the CF dye was encapsulated at self-quenching concentrations. With a suitable carrier, heptaArg can be taken up into the vesicles, bind with entrapped CF, and shuttle back to the exterior, spreading the previously quenched CF, and thereby restoring its fluorescence (Fig. 3). In the time-resolved fluorescence experiments, to test whether a POM acts as molecular carrier, the CF emission was continuously monitored during the addition of the inorganic carrier (t = 60 s) and after injection the impermeable heptaArg (t = 120 s). At the end of the experiment (t = 600 s), the surfactant Triton X-100 was added to release all the entrapped CF and allow normalization of the intensity data (Fig. 4a).

Assay [5] deals with CHO-K1 cells. Nature of the assay: Confocal imaging of FITC-Arg8 cellular uptake. Type of assay: cell-based. The conditions noted are these: 4 µM FITCArg8, 5 and 10 µM carrier, 1 h, fixed cells, preliminary. The procedure:
For confocal microscopy experiments, CHO-K1 cells were seeded into 12-well plates (Eppendorf) at a density of 1×10^5 cells/well (per 1 mL) and incubated for 24 h in Ham's F-12 containing 10 % (v/v) fetal bovine serum at 37 °C in a 5 % CO2. The cells were washed twice with PBS, and then incubated with POMs and FITC-Arg8 (4 µM) for 1 h at 37 °C, cells were washed twice with Hank's Balanced Salt solution containing 100 µg/mL heparin, twice again with PBS and fixed with 1 mL cold 4 % paraformaldehyde for 20 min. The cells were rewashed twice with PBS and subsequently the nuclei were stained with 2 µg/mL DAPI for 10 min at room temperature before imaging. Cells were imaged by LSM 980 confocal laser scanning microscope. Images were processed with Zen 3.2 software (Zeiss).

Setting [6] is: EYPC (zwitterionic), 13 µM phospholipids, 10 µM heptaLys.
Where [7] appears, read: EYPC (zwitterionic), 13 µM phospholipids, 10 µM heptaLys, read-out: EC50.
The mark [8] stands for this setting: EYPC vesicles, 0.1 µM polyArg, acidic pH 5.5.
[9] abbreviates: EYPC vesicles, 0.1 µM polyArg, neutral pH 7.4.
Where [10] appears, read: EYPC vesicles, 0.1 µM polyArg, neutral pH 7.4, read-out: PolyArg EC50.
The mark [11] stands for this setting: EYPC vesicles, 1 µM Protamine, acidic pH 5.5.
[12] abbreviates: EYPC vesicles, 1 µM protamine, neutral pH 7.4.
[13] abbreviates: EYPC vesicles, 1 µM protamine, neutral pH 7.4, read-out: Protamine EC50.
The mark [14] stands for this setting: EYPC vesicles, 10 µM heptaArg, neutral pH 7.4, E = Ymax(pEC50/f), f = 20.6.
Where [15] appears, read: EYPC vesicles, 10 µM heptaArg, neutral pH 7.4, read-out: HeptaArg EC50.

Several values for one entry are separate records, joined by “and”; a condition that tells them apart may be missing. Equal entries are not always repeated.

A word on the EC50: it is the midpoint of the concentration-response curve.

Regarding “K4[α-Si^IVMo^VIW^VI11O40]·24H2O [[SiMoW11]^4-]”, the results for the “E (activation efficiency)” value in assay [1] and in assay [4] (setting [6]) were 3.6 and 4.4, respectively. Also, the concentration giving a half-maximal response (EC50) in assay [1] turned out to be 60 µM; in assay [4] (setting [7]), 22 µM; in assay [4] (EYPC vesicles, 0.1 µM polyArg, acidic pH 5.5, read-out: PolyArg EC50), 5 µM; in assay [4] (setting [10]), 13 µM; in assay [4] (EYPC vesicles, 1 µM Protamine, acidic pH 5.5, read-out: Protamine EC50) it was 14 µM; in assay [4] (setting [13]) it was 19 µM. Further, in assay [4] (setting [15]), the EC50 is 16.5 µM and 17 µM. The Ymax in assay [1] is 61%; in assay [4] (setting [6]), 54%. The “HeptaArg Ka/ 10^7” value in assay [2] is recorded as 0.6 10^7 M-1. The “Protamine Ka/ 10^7” value in assay [3] was 1.7 ± 0.3 10^7 M-1. In addition, the “PolyArg E (activation efficiency)” value in assay [4] (setting [8]) was 9.7; in assay [4] (setting [9]), 8.6. The “PolyArg Ymax” value in assay [4] (setting [8]) was determined as 86%; in assay [4] (setting [9]), 94%. Further, the “Protamine E (activation efficiency)” value is recorded as 7.3 in assay [4] (setting [11]) and 6.0 in assay [4] (setting [12]). Besides, the “Protamine Ymax” value stood at 80% in assay [4] (setting [11]) and 72% in assay [4] (setting [12]). In addition, the “HeptaArg E (activation efficiency)” value in assay [4] (EYPC vesicles, 10 µM heptaArg, acidic pH 5.5) was 6.6; in assay [4] (setting [14]), 5.7. In addition, the “HeptaArg Ymax” value in assay [4] (EYPC vesicles, 10 µM heptaArg, acidic pH 5.5 (10 mM Mes, 107 mM NaCl)) turned out to be 66%; in assay [4] (EYPC vesicles, 10 µM heptaArg, neutral pH 7.4) it was 66%. Moreover, in assay [4], the “cargo transport in CF-loaded vesicles (qualitative)” value was “triggered the desired increase in fluorescence characteristic for cargo transport”. Also, the “onset for transport activity (carrier concentration)” value in assay [4] is given as “around 1 µM”. For the same substance, in assay [5], the “FITCArg8 uptake (confocal fluorescence microscopy)” value was “strong diffuse fluorescence”.

On to K4[α-P^VV^VW^VI11O40]·4H2O [[PVW11]^4-], for which, in assay [1], the “E (activation efficiency)” value came to 2.8, the EC50 amounted to 50 µM and the Ymax was 45%. For the same substance, the “HeptaArg Ka/ 10^7” value in assay [2] is reported as 5.7 ± 0.7 10^7 M-1. Also, in assay [3], the “Protamine Ka/ 10^7” value is recorded as 25 ± 9 10^7 M-1. In assay [4] (setting [6]), the “E (activation efficiency)” value was determined as 4.3 and the Ymax is given as 62%. In addition, in assay [4] (setting [7]), the EC50 amounted to 38 µM. For the same substance, in assay [4] (setting [9]), the “PolyArg E (activation efficiency)” value is 8.2 and the “PolyArg Ymax” value amounted to 88%. The EC50 in assay [4] (setting [10]) turned out to be 12 µM. In assay [4] (setting [12]), the “Protamine E (activation efficiency)” value came to 5.9 and the “Protamine Ymax” value turned out to be 88%. The EC50 in assay [4] (setting [13]) was found to be 41 µM. Besides, in assay [4] (setting [14]), the “HeptaArg E (activation efficiency)” value worked out at 5.3. Besides, the EC50 in assay [4] (setting [15]) worked out at 49 µM. In assay [4], the “cargo transport in CF-loaded vesicles (qualitative)” value was “triggered the desired increase in fluorescence characteristic for cargo transport” and the “onset for transport activity (carrier concentration)” value was “around 1 µM”. Besides, the “FITCArg8 uptake (confocal fluorescence microscopy)” value in assay [5] was “strong diffuse fluorescence”.
